Here are results for 4 compounds from publication PMC4052313, “A New Lyngbyatoxin from the Hawaiian Cyanobacterium Moorea producens” (Marine Drugs, 2014).

Like-named read-outs stand apart in the source and are kept apart here.

The nature of data set [1]: Cytotoxicity assay toward L1210 leukemia cells. It is filed as cell-based. The following applies: mouse. How it is done: The cytotoxic activities of compounds 1 and 2 were tested toward L1210 mouse leukemia cells. The detailed methods were reported previously. Differences with the reported methods were (a) samples were dissolved with methanol; and (b) the methanol dissolved samples were applied onto each well and air-dried before the addition of L1210 cells.

The subject of data set [2] is shrimp Palaemon paucidens. Put plainly: Crustacean lethality test, injection into abdominal cavity of shrimp. It is filed as in vivo. As to conditions: for LD100 (lethal dose 100%): injection into abdominal cavity, monitored for 4 h. How it is done:
The shrimp Palaemon paucidens (average weight, 0.5 g) was used for the crustacean lethality test. Tested samples were suspended with 1% Tween 20 (polyoxyethylene (20) sorbitan monolaurate). Two micro liter of each sample suspension was injected into the abdominal cavity of the shrimp (n = 3–5). The shrimp were monitored every 30 min for 4 h. Through the lethality tests, the lethal dose 100% values (LD100) were determined. One percent Tween 20 without sample was used as reference. LD100 was defined as weight of sample per unit weight of crustacean.

In data set [3] the target is T1, PKCδ-C1B peptide (Mus musculus, UniProt P28867).
T1 construct: made in house; host or cells: chemical peptide synthesis (no expression host)
T1 sequence (P28867 231-281 limits assumed): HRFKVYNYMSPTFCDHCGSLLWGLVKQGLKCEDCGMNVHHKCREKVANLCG
Put plainly: Competition binding assay with [3H]PDBu using synthetic PKCδ-C1B peptide. As for the experimental part:
The binding of [^3H]PDBu to the PKCδ-C1B peptide was evaluated by the procedure of Sharkey and Blumberg with modifications as reported previously using 50 mM tris-maleate buffer (pH 7.4 at 4 °C), 13.8 nM PKCδ-C1B peptide, 20 nM [^3H]PDBu (18.7 Ci/mmol, Perkin-Elmer Life Sciences), 50 μg/mL 1,2-dioleoyl-sn-glycero-3-phospho-L-serine (Sigma, St. Louis, MO, USA), 3 mg/mL bovine γ-globulin (Sigma, St. Louis, MO, USA), and various concentrations of inhibitors. The concentration of the properly folded PKCδ-C1B peptide was estimated to be about 3 nM on the basis of Bmax values of Scatchard analyses reported previously. Binding affinity was evaluated based on the concentration required to cause 50% inhibition of the specific binding of [^3H]PDBu, the IC50, which was calculated with Microsoft Excel. The inhibition constant, Ki, was calculated by the method of Sharkey and Blumberg.

For data set [4], the system named is HeLa cells. The following applies: read-out: IC50 (cytotoxic effects); cited from earlier work.
For data set [5], the system named is ACC-MESO-1 cells. The following applies: read-out: IC50 (cytotoxic effects); cited from earlier work.
The target in data set [6] is T1, PKCδ-C1B peptide. As to conditions: read-out: Ki for binding to PKCδ-C1B; cited from earlier work.

A word on the IC50: it is the concentration at which inhibition is half-maximal. By Ki is commonly meant the dissociation constant of the complex between target and ligand, obtained from inhibition or displacement. As to `C=C[C@@](C)(CCC=C(C)C)c1ccc2c3c(c[nH]c13)C[C@@H](CO)NC(=O)[C@@H](C(C)C)N2C` [compound 1, 12-Epi-lyngbyatoxin A], half-maximal inhibition in data set [1] (IC50) required 20.4 µM. In data set [2], the “LD100 (lethal dose 100%)” value came out at 7.5 mg/kg. For the same compound, in data set [2] (injection, dose below the lethal dose), the Dose causing paralysis came out at 0.9 mg/kg. The compound further had a Ki in data set [3] of 0.017 µM. Moreover, the “Times lower binding affinity for PKC compared to lyngbyatoxin A (2)” value in data set [3] (PKCδ-C1B peptide, relative to compound 2) is reported as “more than 100 times”.
For the compound `C=C[C@@](C)(CCC=C(C)C)c1ccc2c3c(c[nH]c13)C[C@@H](CO)NC(=O)[C@H](C(C)C)N2C` [compound 2, Lyngbyatoxin A], the 50% inhibitory concentration (IC50) in data set [1] was 8.1 µM; in data set [4] it was 35 µM; in data set [5], 11 µM. In data set [2] (injection), the “Paralysis at dose less than the lethal amount” value is reported as “Paralysis was not observed”. Further, in data set [2], the “LD100 (lethal dose 100%)” value stood at 5 mg/kg. This compound came in with a Ki in data set [3] of 0.00011 µM.
On to `CO[C@@H](CC[C@H](C)[C@H]1O[C@@]23C[C@H](OC(=O)C[C@H]([C@@H](C)O)OC(=O)C[C@](O)(O2)[C@H](C)CC3(C)C)[C@@H]1C)c1cccc(O)c1` [DATX, debromoaplysiatoxin], for which, in data set [6], the Ki is 0.0002 µM.
Take `CO[C@@H](CC[C@H](C)[C@H]1O[C@@]23C[C@H](OC(=O)C[C@H]([C@@H](C)O)OC(=O)C[C@](O)(O2)[C@H](C)CC3(C)C)[C@@H]1C)c1cc(O)ccc1Br` [ATX, Aplysiatoxin]: the Ki in data set [6] is 0.00041 µM.
